Laboratory results as given in PubChem BioAssay (NCI).
“And” between values parts separate entries of the source, which are not always exact repeats. Identical values can stand only once.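 Five concentrations, 48 hours, 96-well plates. At the GI50, growth is halved. TGI marks complete inhibition of growth.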

Columns and labels:
Test in all cases: DTP human tumour cell line panel, 48 h
MOLT-4 leukemia = tested on: MOLT-4 leukemia
SW-620 colon = tested on: SW-620 colon
COLO 205 colon = tested on: COLO 205 colon
M14 melanoma = tested on: M14 melanoma
NCI-H460 lung = tested on: NCI-H460 lung
LOX IMVI melanoma = tested on: LOX IMVI melanoma
HOP-62 NSCLC = tested on: HOP-62 NSCLC
BT-549 breast = tested on: BT-549 breast
HCT-116 colon = tested on: HCT-116 colon
SK-MEL-28 melanoma = tested on: SK-MEL-28 melanoma

Structure (SMILES) | GI50 (MOLT-4 leukemia) | TGI (MOLT-4 leukemia) | GI50 (SW-620 colon) | TGI (SW-620 colon) | GI50 (COLO 205 colon) | TGI (COLO 205 colon) | GI50 (M14 melanoma) | TGI (M14 melanoma) | GI50 (NCI-H460 lung) | TGI (NCI-H460 lung) | GI50 (LOX IMVI melanoma) | TGI (LOX IMVI melanoma) | GI50 (HOP-62 NSCLC) | TGI (HOP-62 NSCLC) | GI50 (BT-549 breast) | TGI (BT-549 breast) | GI50 (HCT-116 colon) | TGI (HCT-116 colon) | GI50 (SK-MEL-28 melanoma) | TGI (SK-MEL-28 melanoma)
O=C(Nc1ccc(OCc2nnc(-c3ccc(Cl)cc3)o2)c(F)c1)Nc1ccc(Cl)c(C(F)(F)F)c1 | 2.07 µM | 7.5 µM | 2.9 µM | 11 µM | 1.73 µM | 3.5 µM | 2.23 µM | 11.7 µM | 1.85 µM | 4.86 µM | 2.23 µM | 6.66 µM | 0.793 µM | 5.84 µM | 3.06 µM | 11 µM | 1.8 µM | 6.16 µM | 3.02 µM | 13.5 µM
CN[C@@H](C)C(=O)N[C@H](C(=O)N1CCC[C@H]1C(=O)Nc1sc(-c2ncco2)nc1-c1ccccc1)C1CCCCC1 | 29.2 µM | 88.1 µM | 78.4 µM | > 100 µM | 18.7 µM | 37.9 µM | 18.5 µM | 36.7 µM | 37.7 µM | > 100 µM | 18.5 µM | 34.8 µM | > 92.2 µM | > 100 µM | 0.0598 µM | 33.6 µM | 25.6 µM | > 85.4 µM | 16.3 µM | 33.9 µM
O=C1CCC(N2Cc3cc(CNC(=O)C(F)(F)c4ccc(Cl)cc4)ccc3C2=O)C(=O)N1 (stereo not given) | 0.0148 µM |  | 0.11 µM | > 100 µM | 0.721 µM | > 100 µM | 38.4 µM | > 100 µM | > 100 µM | > 100 µM | > 100 µM | > 100 µM | 3.02 µM | > 100 µM | 0.237 µM | > 74.2 µM | > 100 µM | > 100 µM | > 100 µM | > 100 µM
O=C1OCC2=C1C(c1ccccc1)c1cc3c(cc1N2)OCO3 (stereo not given) | 0.036 µM |  | 0.037 µM | > 100 µM | 0.0261 µM | 0.0703 µM | 0.0276 µM | > 100 µM | 0.0354 µM |  | 0.042 µM | > 100 µM | 0.0462 µM | 33.4 µM | 0.0441 µM | 4.97 µM | 0.0352 µM | > 100 µM | 0.0428 µM | > 100 µM
Nc1nc(OCc2ccccc2)c2[nH]cnc2n1 | 88.4 µM and 33.5 µM | 200 µM and 126 µM | 98.5 µM | 400 µM and 289 µM | 57 µM and 36.1 µM | 288 µM and 151 µM | 25.6 µM and 26.5 µM | 204 µM and 116 µM | 35.8 µM and 37.6 µM | 400 µM and 195 µM | 34 µM and 26.2 µM | 273 µM and 115 µM | 42 µM and 23.5 µM | 209 µM and 70.9 µM | 24.3 µM and 22.1 µM | 115 µM | 34.7 µM and 34.5 µM | 209 µM and 137 µM | 46.7 µM and 62.9 µM | 400 µM and 293 µM
CN(C)CCCn1c(=O)c2ccccc2c2ccccc21 | 6.46 µM | > 100 µM | 6.27 µM | 53.3 µM | 5.58 µM | 20.6 µM | 14.4 µM | 29.6 µM | 7.55 µM | 25.8 µM | 5.13 µM | 44 µM | 20.5 µM | > 100 µM | 29.5 µM | 73.9 µM | 4.74 µM | > 100 µM | 21.6 µM | 46.9 µM
CCCN(CCS(C)(=O)=O)Cc1ccc(-c2ccc3ncnc(Nc4ccc(OCc5cccc(F)c5)c(Cl)c4)c3c2)o1 | 7.31 µM | > 25 µM | > 25 µM | > 25 µM | > 25 µM | > 25 µM | > 25 µM | > 25 µM | > 25 µM | > 25 µM | > 25 µM | > 25 µM | > 25 µM | > 25 µM | > 25 µM | > 25 µM | > 25 µM | > 25 µM | > 25 µM | > 25 µM
Cc1cc(S(=O)(=O)/N=C(/N)Nc2ccccc2O)c(SCc2ccccc2)cc1Cl | 3.01 µM | 42.3 µM | 22.1 µM | 56.4 µM | 23 µM | 47.8 µM | 15.3 µM | 32.3 µM | 7.64 µM | 50.7 µM | 14.6 µM | 33.5 µM | 20.7 µM | 37.3 µM | 8.2 µM | 22.8 µM | 15.1 µM | 31.4 µM | 18.6 µM | 43.9 µM
C/C(=C\c1ccc2ccccc2c1)[N+](=O)[O-] | 2.61 µM | 6.48 µM | 1.78 µM | 3.54 µM | 2.07 µM | 4.36 µM | 2.2 µM | 4.94 µM | 1.88 µM | 3.83 µM | 1.19 µM | 2.8 µM | 2.31 µM | 5.49 µM | 2.24 µM | 4.57 µM | 2.19 µM | 5.58 µM | 1.95 µM | 4.06 µM
OCC12C3C4C5C3C1C5C42 (stereo not given) |  | > 100 µM |  | > 100 µM |  | > 100 µM |  | > 100 µM |  | > 100 µM |  | > 100 µM |  | > 100 µM |  | > 100 µM |  | > 100 µM |  | > 100 µM
O=C1c2cccnc2C(=O)c2c1c(C(=O)NCCCN1CCCCC1)c1ccccn21 | 0.867 µM | > 100 µM | 0.471 µM | 2.14 µM | 0.268 µM | 0.928 µM | 1.15 µM | 2.44 µM | 0.299 µM | 1.46 µM | 0.49 µM | 2.03 µM | 1.08 µM | 3.18 µM | 2.47 µM | 6.89 µM | 0.337 µM | 1.22 µM | 3.15 µM | 10.5 µM
O=C1c2ccccc2-c2cc([N+](=O)[O-])c([N+](=O)[O-])cc21 |  | 4.36 µM |  | > 21.1 µM |  | 4.71 µM |  | 3.43 µM |  | 3.06 µM |  | 2.12 µM |  | 3.13 µM |  | 3.79 µM |  | 6.23 µM |  | 8.4 µM
O=C1OC(=O)C(=C\c2ccc3c(c2)OCO3)/C1=C/c1ccc2c(c1)OCO2 |  | > 100 µM |  | > 100 µM |  | > 100 µM |  | > 100 µM |  | > 100 µM |  | > 100 µM |  | > 100 µM |  | > 100 µM |  | > 100 µM |  | > 100 µM
CC(C)C[C@H](NC(=O)CNC(=O)c1cc(Cl)ccc1Cl)B1OC(=O)CC(CC(=O)O)(C(=O)O)O1 (stereo not given in full) | 0.0366 µM | > 100 µM | 0.0364 µM |  | 0.0868 µM | 22.3 µM | 0.034 µM | 0.143 µM | 0.231 µM |  | 0.0325 µM | 0.12 µM | 0.124 µM | 1.05 µM | 0.0324 µM | 0.126 µM | 0.0267 µM | 0.0711 µM | 0.0345 µM | 0.191 µM
